Measurements reported in USRE49698E1, “Substituted dihydroquinazolines” (AiCuris Anti-infective Cures GmbH, priority 2003, dated 2023).
Structures can show the parent of a compound that is named as a salt. Where two headings read alike, the source gives them in different places.

Tests used:
[1] = tested on: HCMV; test: Anti-HCMV (anti-human cytomegalovirus) cytopathogenicity test; format: cell-based
Experimental: (§1) Anti-HCMV (Anti-Human Cytomegalovirus) Cytopathogenicity Tests
(§2) The test compounds are employed as 50 millimolar (mM) solutions in dimethyl sulphoxide (DMSO). Ganciclovir®, Foscarnet® and Cidofovir® are used as reference compounds. After addition of in each case 2 μl of the 50, 5, 0.5 and 0.05 mM DMSO stock solutions to 98 μl portions of cell culture medium in row 2 A-H for duplicate determinations, 1:2 dilutions are carried out with 50 μl portions of medium up to row 11 of the 96-well plate. The wells in rows 1 and 12 each contain 50 μl of medium. In 150 μl of a suspension of 1×10^4 cells (human prepuce fibroblasts [NHDF]) are pipetted into each of the wells (row 1=cell control) and, in rows 2-12, a mixture of HCMV-infected and uninfected NHDF cells (M.O.I.=0.001-0.002), i.e. 1-2 infected cells per 1000 uninfected cells. Row 12 (without substance) serves as virus control. The final test concentrations are 250-0.0005 μM. The plates are incubated at 37° C./5% CO2 for 6 days, i.e. until all the cells are infected in the virus controls (100% cytopathogenic effect [CPE]). The wells are then fixed and stained by adding a mixture of formalin and Giemsa's dye (30 minutes), washed with double-distilled water and dried in a drying oven at 50° C. The plates are then assessed visually using an overhead microscope (Plaque Multiplier from Technomara).
The following data can be acquired from the test plates:
SI (selectivity index)=CC50 (NHDF)/EC50 (HCMV).

[2] = Cytostatic effect on NHDF cells in the anti-HCMV cytopathogenicity test plates; format: cell-based; settings: human, human prepuce fibroblasts (NHDF cells), 6 days incubation, visual assessment, concentration at which no visible cytostatic effects are evident vs untreated cell control
Experimental: as §1, §2
The following data can be acquired from the test plates: […]

[3] = Human betaherpesvirus 5, NHDF, 144 h, read-out: HCMV EC50
[4] = Human betaherpesvirus 5, NHDF, 144 h; read-out: HCMV EC50

Row | SMILES | SI HCMV (selectivity index) ([1]; CC50 (NHDF)/EC50 (HCMV)) | EC50 [1, 3] [nM] | CC50 at 6 days [2] [nM] | EC50 [1, 4] [nM]
1 | COc1ccc(Cl)cc1N1C(N2CCN(c3ccc(F)cc3)CC2)=Nc2c(F)cccc2C1CC(=O)O (single isomer, unassigned) [Example 23, {8-Fluoro-2-[4-(4-fluorophenyl)-1-piperazinyl]-3-[6-methoxy-3-chlorophenyl]-3,4-dihydro-4-quinazolinyl}acetic acid hydrochloride] | 12632 | 2 | 24000 | –
2 | O=C(O)CC1c2cccc(F)c2N=C(N2CCN(c3ccc(F)cc3)CC2)N1c1cccc(C(F)(F)F)c1 (single isomer, unassigned) [Example 2, {8-Fluoro-2-[4-(4-fluorophenyl)-1-piperazinyl]-3-[3-(trifluoromethyl)phenyl]-3,4-dihydro-4-quinazolinyl}acetic acid] | 750 | – | 12000 | 16
3 | Cc1cccc(N2CCN(C3=Nc4c(F)cccc4C(CC(=O)O)N3c3cccc(C(F)(F)F)c3)CC2)c1 (single isomer, unassigned) [Example 9, {8-Fluoro-2-[4-(3-methylphenyl)-1-piperazinyl]-3-[3-(trifluoromethyl)phenyl]-3,4-dihydro-4-quinazolinyl}acetic acid hydrochloride] | 750 | 20 | 15000 | –
4 | NC(=O)c1ccc2c(c1)C(CC(=O)O)N(c1cccc(C(F)(F)F)c1)C(N1CCN(c3cccc(Cl)c3)CC1)=N2 (stereo not shown) [Example 29] | 671 | – | 47000 | 70
5 | COc1cccc(N2CCN(C3=Nc4c(F)cccc4C(CC(=O)O)N3c3cc(C(F)(F)F)ccc3OC)CC2)c1 (single isomer, unassigned) [Example 15, {8-Fluoro-2-[4-(3-methoxyphenyl)-1-piperazinyl]-3-[2-methoxy-5-(trifluoromethyl)phenyl]-3,4-dihydro-4-quinazolinyl}acetic acid] | – | – | – | 2
6 | COc1ccc(C(F)(F)F)cc1N1C(N2CCN(c3ccc(F)cc3)CC2)=Nc2c(F)cccc2C1CC(=O)O (single isomer, unassigned) [Example 19, {8-Fluoro-2-[4-(4-fluorophenyl)-1-piperazinyl]-3-[2-methoxy-5-(trifluoromethyl)phenyl]-3,4-dihydro-4-quinazolinyl}acetic acid] | 8947 | – | 17000 | 2
